Consider seven compounds from article PMC3405817 (Evidence-based Complementary and Alternative Medicine : eCAM, 2012).

≈ marks a conversion by molar mass, not a printed value. Bounds are passed on as bounds.

Series [1] has as its system human promonocytic HL-CZ cells. The series can be described thus: Cell viability assay (trypan blue), HL-CZ cells. The note with it: 48 hours, trypan blue staining.
Series [2] can be described thus: Cell viability assay (trypan blue), BHK-21 cells. To be noted: hamster, CC50 BHK-21, BHK-21 cells, trypan blue staining.
For a further series, the system named is BHK-21 cells. The series can be described thus: Cell viability assay (trypan blue), BHK-21 cells. To be noted: BHK-21 cells, 48 hours, trypan blue staining.
The nature of series [3]: Cell viability assay (trypan blue), HL-CZ cells. The note with it: human, CC50 HL-CZ, trypan blue staining.
In series [4] the test system is JEV. The series can be described thus: Virus attachment assay (4°C, BHK-21 monolayer). The format is cell-based. To be noted: Japanese encephalitis virus; JEV 120 pfu, 4°C 1 h on BHK-21 monolayer, residual infectivity by plaque assay. As to the method:
After 3-day incubation at 37°C in a 5% CO2 incubator, plaques were stained, as described in plaque assay.

Series [5] relates to JEV. The series can be described thus: Virucidal activity assay. The series is classed as cell-based. To be noted: Japanese encephalitis virus; JEV 10^5 pfu preincubated 60 min at 4°C, 1000-fold dilution, residual infectivity on BHK-21. As to the method:
Virucidal assay was based on prior reports. […] A 1000-fold dilution of each extract/virus or compound/virus mixture was added onto BHK-21 cell monolayer in 6-well plates.

The test system of series [6] is virulent JEV strain Beijing-1. The series can be described thus: Mouse protection assay against lethal JEV challenge. The format is in vivo. To be noted: BALB/c mice, i.c. JEV 1 × 10^5 pfu, 1 mg/kg i.c. at 2, 24, 48 h after infection. As to the method:
Groups (n = 10) of 2-week-old BALB/c mice were intracerebrally infected with 1 × 10^5 pfu of virulent JEV strain Beijing-1 then underwent three intracerebral treatments with 30 μg/100 μL of I. indigotica extract or marker compound (1 mg/kg of body weight) using 100 μL syringes at 2, 24, and 48 h after infection. Two additional groups were infected with JEV and received PBS or DMSO (0.05%) treatment as solvent controls. Survival rates were monitored every day for one week.

The subject of series [7] is JEV. The series can be described thus: Virus yield in JEV-infected HL-CZ cells by plaque assay. The note with it: 10 μg/mL, JEV MOI 0.5, after 24 h incubation.
The subject of series [8] is JEV. The series is described as follows: Plaque reduction and time-of-addition assay in BHK-21 cells. The note with it: Japanese encephalitis virus.
[9] abbreviates: BHK-21, 1 h, read-out: IC50 of posttreatment.
Where [10] appears, read: BHK-21, 1 h, read-out: IC50 of simultaneous treatment.
The mark [11] stands for this setting: BHK-21, read-out: IC50 of pretreatment.

For the compound `O=c1[nH]c2ccccc2o1` [2-Benzoxazolinone, 2-benzoxazolinone], the “CC50 HL-CZ” value in series [1] is 67.33 ± 10.2 µg/mL (≈ 498 µM). In addition, in series [2], the CC50 – broadly, the concentration that lowers cell viability or growth by half – at 48 h was under 25 µg/mL. Further, the “CC50 BHK-21” value with BHK-21 cells stood at 19.92 ± 1.57 µg/mL (≈ 147 µM).

Regarding `Nc1ncnc2c1ncn2[C@@H]1O[C@H](CO)[C@@H](O)[C@H]1O` [Adenosine, adenosine], the CC50 at 48 h in series [3] and in series [2] was under 25 µg/mL each time. In addition, the “CC50 HL-CZ” value in series [1] is 15.38 ± 1.05 µg/mL (≈ 57.6 µM). Moreover, in the series on BHK-21 cells, the “CC50 BHK-21” value turned out to be 24.10 ± 2.57 µg/mL (≈ 90.2 µM).

In the case of `C=C(C)[C@@H]1CC[C@]2(CO)CC[C@]3(C)[C@H](CC[C@@H]4[C@@]5(C)CC[C@H](O)C(C)(C)[C@@H]5CC[C@]43C)[C@@H]12` [Betulin, betulin], in series [1], the “CC50 HL-CZ” value was determined as 2.10 ± 0.78 µg/mL (≈ 4.74 µM). Moreover, the CC50 at 48 h in series [2] was under 25 µg/mL. Also, in the series with BHK-21 cells, the “CC50 BHK-21” value amounted to 13.30 ± 2.58 µg/mL (≈ 30 µM).

On to `O=C1/C(=C2\Nc3ccccc3C2=O)Nc2ccccc21` [Indigo, indigo], for which the IC50 – broadly, the concentration that gives 50% inhibition – with JEV [4] was 5.15 ± 0.18 µg/mL (≈ 19.6 µM); in the series with JEV [5] it was 3.03 ± 3.18 µg/mL (≈ 11.6 µM); in the series with JEV [8] (setting [9]) it was over 50 µg/mL; in the series with JEV [8] (setting [10]), 37.5 ± 3.18 µg/mL (≈ 143 µM); in the series on JEV [8] (setting [11]), 11.79 ± 0.1 µg/mL (≈ 45 µM). The “Survival rate on Day 6 after infection” value in series [6] is reported as 50%. The compound further came in with a CC50 at 48 h in series [3] of 99.41 ± 0.54 µg/mL (≈ 379 µM). Further, the “CC50 BHK-21” value with BHK-21 cells amounted to 86.88 ± 3.72 µg/mL (≈ 331 µM); with BHK-21 cells (listed as indigo), 26.88 µg/mL (≈ 102 µM). Further, the virus yield reduced entry in the series with JEV [7] was “approximately 40%”.

Consider `O=C1Nc2ccccc2/C1=C1/Nc2ccccc2C1=O` [Indirubin, indirubin], for which the half-maximal inhibitory concentration (IC50) was 5.1 ± 1.32 µg/mL (≈ 19.4 µM) in the series with JEV [4]; 0.47 ± 2.83 µg/mL (≈ 1.79 µM) in the series on JEV [5]; over 50 µg/mL in the series on JEV [8] (setting [9]); 13.7 ± 2.83 µg/mL (≈ 52.2 µM) in the series on JEV [8] (setting [10]); 23.5 ± 0.89 µg/mL (≈ 89.6 µM) in the series on JEV [8] (setting [11]). The “Survival rate on Day 6 after infection” value in series [6] was 70%. Moreover, the results for the cytotoxic concentration (CC50) at 48 h in [3] and in [2] were 64.9 ± 1.08 µg/mL (≈ 247 µM) and 57.5 µg/mL (≈ 219 µM), respectively. In the series on BHK-21 cells, the “CC50 BHK-21” value is over 100 µg/mL. Moreover, in the series with JEV [7], the virus yield reduced entry is reported as “approximately 40%”.

For `C=C(C)[C@@H]1CC[C@]2(C)CC[C@]3(C)[C@H](CC[C@@H]4[C@@]5(C)CC[C@H](O)C(C)(C)[C@@H]5CC[C@]43C)[C@@H]12` [Lupeol, lupeol], in series [1], the “CC50 HL-CZ” value is 3.44 ± 1.17 µg/mL (≈ 8.06 µM). The “CC50 BHK-21” value in the series with BHK-21 cells turned out to be 9.53 ± 1.32 µg/mL (≈ 22.3 µM).

On to `O=C1c2ccccc2-n2c1nc1ccccc1c2=O` [Tryptathrin, tryptanthrin], for which, in [1], the “CC50 HL-CZ” value turned out to be 1.74 ± 0.34 µg/mL (≈ 7.01 µM). Also, the “CC50 BHK-21” value in the series with BHK-21 cells amounted to 4.57 ± 0.26 µg/mL (≈ 18.4 µM).
